Here are results for three molecules from ChEMBL document CHEMBL1201862, “PubChem BioAssay data set” (2004).

Holding throughout (format): functional
A short description of assay [1]: blockade of melanocortin 4 receptor signaling – cell-based, plate reader, cherry pick, counter-screen for LGR2 antagonist project, dose response (AID 743444).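 Note: transfected HEK 293 cells stimulated with alpha-MSH peptide; potency of inhibitors of the alpha-MSH evoked signal.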 On the technique in general: A counterscreen serves to expose hits that act by an unwanted route or on another target.
The target in another assay is Cysteine protease ATG4B (Homo sapiens, UniProt Q9Y4P1).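 Note: Fluorescence-based dose-response confirmation assay measuring inhibition of ATG4B activity.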
The target of assay [2] is T1, Apoptotic protease-activating factor 1 (Homo sapiens, UniProt O14727).
T1 sequence (O14727 whole entry): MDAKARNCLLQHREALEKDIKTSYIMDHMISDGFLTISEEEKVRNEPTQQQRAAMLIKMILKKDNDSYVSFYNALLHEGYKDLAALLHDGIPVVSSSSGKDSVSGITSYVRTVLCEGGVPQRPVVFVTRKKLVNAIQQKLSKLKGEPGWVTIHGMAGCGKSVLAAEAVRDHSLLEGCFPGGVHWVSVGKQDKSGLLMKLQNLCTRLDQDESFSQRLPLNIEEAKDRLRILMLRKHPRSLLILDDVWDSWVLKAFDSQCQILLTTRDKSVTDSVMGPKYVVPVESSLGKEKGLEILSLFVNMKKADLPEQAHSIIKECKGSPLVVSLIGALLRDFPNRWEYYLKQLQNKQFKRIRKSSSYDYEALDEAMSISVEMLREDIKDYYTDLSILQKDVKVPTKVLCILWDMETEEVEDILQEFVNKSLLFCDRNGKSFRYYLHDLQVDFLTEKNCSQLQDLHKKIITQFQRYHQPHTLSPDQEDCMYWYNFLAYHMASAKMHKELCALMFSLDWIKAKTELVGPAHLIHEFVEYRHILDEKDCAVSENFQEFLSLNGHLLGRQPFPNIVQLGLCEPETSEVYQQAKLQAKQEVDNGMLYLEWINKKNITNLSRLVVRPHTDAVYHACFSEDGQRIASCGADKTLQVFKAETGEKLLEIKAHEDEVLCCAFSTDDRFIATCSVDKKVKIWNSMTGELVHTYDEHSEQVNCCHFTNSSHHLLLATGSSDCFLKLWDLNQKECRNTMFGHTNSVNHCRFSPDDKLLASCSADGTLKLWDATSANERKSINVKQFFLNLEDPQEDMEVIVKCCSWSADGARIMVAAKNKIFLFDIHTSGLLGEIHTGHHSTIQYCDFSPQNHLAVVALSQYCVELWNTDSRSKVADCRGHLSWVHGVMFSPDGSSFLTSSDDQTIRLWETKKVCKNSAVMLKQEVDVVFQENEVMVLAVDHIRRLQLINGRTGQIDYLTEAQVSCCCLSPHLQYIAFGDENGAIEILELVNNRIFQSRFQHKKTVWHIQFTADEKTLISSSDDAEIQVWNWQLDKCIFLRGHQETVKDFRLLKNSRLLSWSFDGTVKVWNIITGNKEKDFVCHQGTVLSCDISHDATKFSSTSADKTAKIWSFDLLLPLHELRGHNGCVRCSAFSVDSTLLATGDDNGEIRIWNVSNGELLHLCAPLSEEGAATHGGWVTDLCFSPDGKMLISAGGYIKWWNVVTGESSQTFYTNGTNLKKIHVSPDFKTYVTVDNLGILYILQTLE

For assay [3], the target named is Proto-oncogene tyrosine-protein kinase Src (Homo sapiens, UniProt P12931).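 Note: SRC entry within a kinome-wide kinase profiling panel.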
Proto-oncogene tyrosine-protein kinase Src, sequence (P12931 2-536 limits assumed): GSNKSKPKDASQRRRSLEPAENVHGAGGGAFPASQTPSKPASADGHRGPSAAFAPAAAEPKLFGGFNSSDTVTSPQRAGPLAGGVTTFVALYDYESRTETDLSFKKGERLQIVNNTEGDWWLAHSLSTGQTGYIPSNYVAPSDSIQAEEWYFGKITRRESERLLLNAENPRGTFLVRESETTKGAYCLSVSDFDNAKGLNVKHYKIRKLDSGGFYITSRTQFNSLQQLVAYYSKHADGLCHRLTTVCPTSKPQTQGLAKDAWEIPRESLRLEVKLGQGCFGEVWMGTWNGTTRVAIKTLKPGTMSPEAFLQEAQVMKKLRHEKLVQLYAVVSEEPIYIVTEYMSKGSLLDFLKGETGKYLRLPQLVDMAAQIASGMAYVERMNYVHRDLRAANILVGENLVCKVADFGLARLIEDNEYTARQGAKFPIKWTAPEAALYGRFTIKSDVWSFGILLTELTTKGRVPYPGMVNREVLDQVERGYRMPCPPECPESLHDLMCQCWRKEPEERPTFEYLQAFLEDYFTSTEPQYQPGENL
Assay [4] deals with Dual specificity protein kinase CLK2 (Homo sapiens, UniProt P49760).
Dual specificity protein kinase CLK2, sequence (P49760 whole entry, the tested form may be a part): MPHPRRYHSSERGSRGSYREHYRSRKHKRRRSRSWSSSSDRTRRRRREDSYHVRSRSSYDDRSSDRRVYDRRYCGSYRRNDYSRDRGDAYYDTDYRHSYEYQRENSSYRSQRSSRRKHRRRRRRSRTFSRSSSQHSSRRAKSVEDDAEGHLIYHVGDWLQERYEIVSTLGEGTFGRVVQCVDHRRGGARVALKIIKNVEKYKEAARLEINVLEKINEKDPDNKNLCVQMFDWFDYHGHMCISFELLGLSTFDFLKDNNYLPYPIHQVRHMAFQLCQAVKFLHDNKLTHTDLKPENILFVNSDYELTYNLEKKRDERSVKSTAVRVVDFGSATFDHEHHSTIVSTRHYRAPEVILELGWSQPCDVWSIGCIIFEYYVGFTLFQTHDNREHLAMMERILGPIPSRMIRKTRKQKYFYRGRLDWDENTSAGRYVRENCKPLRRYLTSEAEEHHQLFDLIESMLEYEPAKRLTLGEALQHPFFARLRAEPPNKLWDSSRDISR
A further assay addresses LIM domain kinase 1 (Homo sapiens, UniProt P53667). In words: Navigating the Kinome. Panel member name: LIMK1.
Assay [5] addresses Casein kinase I isoform alpha (Homo sapiens, UniProt P48729).
In assay [6] the target is Glycogen synthase kinase-3 beta (Homo sapiens, UniProt P49841).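 Note: value comes from a broad kinome profiling panel, with GSK3B as the panel member.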
Glycogen synthase kinase-3 beta, sequence (P49841 whole entry): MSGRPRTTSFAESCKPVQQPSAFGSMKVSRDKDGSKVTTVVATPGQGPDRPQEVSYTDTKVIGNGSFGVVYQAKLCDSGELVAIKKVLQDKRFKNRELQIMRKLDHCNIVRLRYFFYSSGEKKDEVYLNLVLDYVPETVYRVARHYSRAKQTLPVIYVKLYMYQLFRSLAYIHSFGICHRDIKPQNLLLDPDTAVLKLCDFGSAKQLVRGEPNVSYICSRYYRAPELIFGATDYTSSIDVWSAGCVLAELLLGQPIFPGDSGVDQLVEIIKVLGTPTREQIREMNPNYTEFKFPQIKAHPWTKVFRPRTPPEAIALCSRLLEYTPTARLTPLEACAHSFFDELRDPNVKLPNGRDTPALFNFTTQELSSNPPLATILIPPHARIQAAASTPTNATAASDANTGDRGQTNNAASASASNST
For assay [7], the target named is Serine/threonine-protein kinase pim-2 (Homo sapiens, UniProt Q9P1W9).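 Note: value comes from a broad kinase panel profiling study in which PIM2 was one of the panel members.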
Serine/threonine-protein kinase pim-2, sequence (Q9P1W9 whole entry): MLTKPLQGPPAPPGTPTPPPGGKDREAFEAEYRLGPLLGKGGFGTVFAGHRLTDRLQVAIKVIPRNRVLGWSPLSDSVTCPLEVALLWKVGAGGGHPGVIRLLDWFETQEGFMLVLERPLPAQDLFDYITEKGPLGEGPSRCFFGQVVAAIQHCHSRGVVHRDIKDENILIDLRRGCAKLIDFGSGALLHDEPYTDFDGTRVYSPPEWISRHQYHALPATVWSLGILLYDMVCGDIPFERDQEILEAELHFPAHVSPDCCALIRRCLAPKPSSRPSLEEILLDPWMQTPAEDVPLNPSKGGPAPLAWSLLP
Assay [8] concerns the target Hepatocyte growth factor receptor (Homo sapiens, UniProt P08581).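 Note: kinase panel profiling across the kinome, with MET as the panel member.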
In assay [9] the target is Calcium/calmodulin-dependent protein kinase type II subunit beta (Homo sapiens, UniProt Q13554).
The target of assay [10] is MAP kinase-activated protein kinase 3 (Homo sapiens, UniProt Q16644).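 Note: value comes from a kinome-wide profiling panel in which MAPKAPK3 is one of the panel members.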
MAP kinase-activated protein kinase 3, sequence (Q16644 whole entry): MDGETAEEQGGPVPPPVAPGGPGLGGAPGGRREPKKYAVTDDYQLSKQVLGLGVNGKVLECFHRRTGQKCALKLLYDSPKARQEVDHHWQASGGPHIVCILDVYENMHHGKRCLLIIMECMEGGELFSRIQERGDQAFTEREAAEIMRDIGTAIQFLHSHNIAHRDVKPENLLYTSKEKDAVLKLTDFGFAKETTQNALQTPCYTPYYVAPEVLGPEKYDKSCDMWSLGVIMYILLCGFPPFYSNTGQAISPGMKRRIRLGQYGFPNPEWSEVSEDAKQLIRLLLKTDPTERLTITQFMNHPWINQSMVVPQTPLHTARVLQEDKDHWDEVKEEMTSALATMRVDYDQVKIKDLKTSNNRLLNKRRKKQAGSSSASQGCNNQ
Assay [11] deals with Serine/threonine-protein kinase Chk2 (Homo sapiens, UniProt O96017).
The next assay concerns the target Aurora kinase A (Homo sapiens, UniProt O14965).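 Note: value from the Navigating the Kinome kinase panel profiling, panel entry STK6.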
Assay [12] concerns the target Fibroblast growth factor receptor 3 (Homo sapiens, UniProt P22607).
In assay [13] the target is cGMP-dependent protein kinase 1 (Homo sapiens, UniProt Q13976).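 Note: value from a kinome panel screen with PRKG1 as the panel member.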
The target in assay [14] is Receptor tyrosine-protein kinase erbB-4 (Homo sapiens, UniProt Q15303).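 Note: ERBB4 member of a kinome-wide kinase profiling panel.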
The target in assay [15] is STE20-like serine/threonine-protein kinase (Homo sapiens, UniProt Q9H2G2).
STE20-like serine/threonine-protein kinase, sequence (Q9H2G2 whole entry): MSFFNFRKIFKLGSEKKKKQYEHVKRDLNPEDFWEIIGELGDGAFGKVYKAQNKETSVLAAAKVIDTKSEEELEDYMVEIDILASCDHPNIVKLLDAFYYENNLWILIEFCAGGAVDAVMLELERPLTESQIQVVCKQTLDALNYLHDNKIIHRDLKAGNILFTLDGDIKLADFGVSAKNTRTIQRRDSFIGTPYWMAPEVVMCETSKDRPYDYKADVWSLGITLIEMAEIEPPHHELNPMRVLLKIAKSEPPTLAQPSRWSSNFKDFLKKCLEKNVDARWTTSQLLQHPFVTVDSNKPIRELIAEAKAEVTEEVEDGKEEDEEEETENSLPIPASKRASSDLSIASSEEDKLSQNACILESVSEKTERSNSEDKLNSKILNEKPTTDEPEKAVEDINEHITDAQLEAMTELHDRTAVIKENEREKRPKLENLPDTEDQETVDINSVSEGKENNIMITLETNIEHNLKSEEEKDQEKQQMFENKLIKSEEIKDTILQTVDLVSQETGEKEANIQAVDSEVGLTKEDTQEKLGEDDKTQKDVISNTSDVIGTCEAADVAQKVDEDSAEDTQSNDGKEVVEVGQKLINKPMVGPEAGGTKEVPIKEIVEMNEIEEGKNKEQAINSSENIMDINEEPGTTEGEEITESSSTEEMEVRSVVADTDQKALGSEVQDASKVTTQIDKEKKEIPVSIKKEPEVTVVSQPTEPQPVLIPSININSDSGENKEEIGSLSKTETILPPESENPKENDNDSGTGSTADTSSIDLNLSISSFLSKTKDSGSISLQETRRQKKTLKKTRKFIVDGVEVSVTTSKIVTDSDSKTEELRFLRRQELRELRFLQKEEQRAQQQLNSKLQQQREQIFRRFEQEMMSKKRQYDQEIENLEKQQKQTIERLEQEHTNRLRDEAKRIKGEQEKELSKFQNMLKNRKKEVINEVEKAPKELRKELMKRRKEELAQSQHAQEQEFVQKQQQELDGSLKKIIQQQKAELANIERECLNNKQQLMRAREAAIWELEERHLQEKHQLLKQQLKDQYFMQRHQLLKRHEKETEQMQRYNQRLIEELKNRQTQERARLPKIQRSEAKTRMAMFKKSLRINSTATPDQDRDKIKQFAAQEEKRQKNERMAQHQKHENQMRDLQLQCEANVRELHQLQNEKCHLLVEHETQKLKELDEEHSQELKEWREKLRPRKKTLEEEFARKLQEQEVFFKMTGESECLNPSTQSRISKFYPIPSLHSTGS

Structures are written as SMILES. The source made the active and inactive calls.

Aurora kinase A, sequence (O14965 whole entry): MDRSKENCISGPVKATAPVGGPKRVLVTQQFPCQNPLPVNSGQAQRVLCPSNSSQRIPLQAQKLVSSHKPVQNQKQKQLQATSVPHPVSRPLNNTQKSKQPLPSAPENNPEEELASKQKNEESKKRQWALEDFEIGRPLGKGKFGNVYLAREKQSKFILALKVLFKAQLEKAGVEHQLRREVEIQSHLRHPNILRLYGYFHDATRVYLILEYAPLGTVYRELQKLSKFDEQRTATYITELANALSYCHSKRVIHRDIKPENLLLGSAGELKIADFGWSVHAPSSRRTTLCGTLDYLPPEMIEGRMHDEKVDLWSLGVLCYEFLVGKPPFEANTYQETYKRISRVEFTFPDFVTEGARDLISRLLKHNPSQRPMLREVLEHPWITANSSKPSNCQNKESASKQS
Casein kinase I isoform alpha, sequence (P48729 whole entry, canonical isoform): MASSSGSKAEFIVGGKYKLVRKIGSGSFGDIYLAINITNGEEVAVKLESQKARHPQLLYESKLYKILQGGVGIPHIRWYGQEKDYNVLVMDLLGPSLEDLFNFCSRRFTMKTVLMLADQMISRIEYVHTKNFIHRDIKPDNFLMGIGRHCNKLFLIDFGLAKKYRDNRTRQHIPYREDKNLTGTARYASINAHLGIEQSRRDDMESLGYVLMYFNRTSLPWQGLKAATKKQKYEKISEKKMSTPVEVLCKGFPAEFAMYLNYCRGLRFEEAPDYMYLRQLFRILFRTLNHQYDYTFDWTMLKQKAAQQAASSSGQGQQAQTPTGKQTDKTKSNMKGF
Fibroblast growth factor receptor 3, sequence (P22607 whole entry): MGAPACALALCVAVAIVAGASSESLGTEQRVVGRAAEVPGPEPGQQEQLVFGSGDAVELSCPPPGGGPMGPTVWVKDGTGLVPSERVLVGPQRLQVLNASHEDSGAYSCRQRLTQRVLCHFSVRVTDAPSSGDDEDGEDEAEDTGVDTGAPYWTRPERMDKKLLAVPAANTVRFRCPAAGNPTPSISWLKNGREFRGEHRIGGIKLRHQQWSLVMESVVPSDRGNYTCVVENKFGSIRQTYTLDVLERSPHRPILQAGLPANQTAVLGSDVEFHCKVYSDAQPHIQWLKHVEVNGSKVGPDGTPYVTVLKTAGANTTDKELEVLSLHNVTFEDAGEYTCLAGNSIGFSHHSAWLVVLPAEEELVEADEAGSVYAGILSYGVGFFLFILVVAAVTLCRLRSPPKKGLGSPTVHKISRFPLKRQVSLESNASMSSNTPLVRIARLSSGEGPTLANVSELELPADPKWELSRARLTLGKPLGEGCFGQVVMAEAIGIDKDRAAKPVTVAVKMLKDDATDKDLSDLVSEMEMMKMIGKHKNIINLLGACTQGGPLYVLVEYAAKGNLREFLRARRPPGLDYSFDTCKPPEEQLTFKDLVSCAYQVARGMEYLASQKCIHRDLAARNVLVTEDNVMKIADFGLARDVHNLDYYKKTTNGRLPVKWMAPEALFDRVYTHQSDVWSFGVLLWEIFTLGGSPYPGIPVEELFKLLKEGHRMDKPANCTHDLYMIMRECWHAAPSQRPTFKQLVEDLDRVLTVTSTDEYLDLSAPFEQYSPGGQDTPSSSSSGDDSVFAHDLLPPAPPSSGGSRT

The AC50 is the midpoint of the concentration-response curve, whichever way the signal moves. For orientation: IC50 means the midpoint of a concentration-inhibition curve. On to `CCCc1nc2c(=O)n(C)c(=O)nc-2n(C)n1`, for which, in assay [1], the concentration at half-maximal activity (AC50) was 4.6 µM (active). Further, the IC50 on Cysteine protease ATG4B was 2.84 µM (active).

`CC(=O)c1ccc(NC2=C(N3CCOCC3)C(=O)c3ccccc3C2=O)cc1`: the IC50 in assay [2] is 28.7 µM (active).

As a reminder, the Ki is the dissociation constant of the complex between target and ligand, obtained from inhibition or displacement. For `COc1cc2ncn(-c3cc(OCc4ccccc4C(F)(F)F)c(C(N)=O)s3)c2cc1OC` [GW843682X], the Ki in [3] is 5.01 µM (active); in assay [4], > 7.94 µM (inactive); at LIM domain kinase 1, 7.94 µM (active); in assay [5] it was > 6.31 µM (inactive); in assay [6], 2 µM (active); in assay [7], > 1.58 µM (inactive). Also, the Ki in [8] is > 3.16 µM (inactive); in [9], > 7.94 µM (inactive); in assay [10], > 10 µM (inactive); in [11], > 5.01 µM (inactive); at Aurora kinase A it was > 3.98 µM (inactive); in assay [12], > 2 µM (inactive). Moreover, the results for the Ki in assay [13], in [14] and in assay [15] were 0.316 µM (active), > 3.98 µM (inactive) and 0.0126 µM (active), respectively.
